Laboratory results as given in US10894807B2 (Siemens Medical Solutions USA, Inc., priority 2011, dated 2021).

Biological target: human PSMA (Homo sapiens (Human), UniProt Q04609)
Assay: Enzymatic assay for in vitro evaluation of PSMA inhibitors (fluorescent assay of PSMA activity, NAAG substrate, OPA detection of glutamate)
Assay type: biochemical
Conditions: for PSMA Blkg % (10 μM): compound at 10 μM

Sequence of human PSMA (Q04609 whole entry): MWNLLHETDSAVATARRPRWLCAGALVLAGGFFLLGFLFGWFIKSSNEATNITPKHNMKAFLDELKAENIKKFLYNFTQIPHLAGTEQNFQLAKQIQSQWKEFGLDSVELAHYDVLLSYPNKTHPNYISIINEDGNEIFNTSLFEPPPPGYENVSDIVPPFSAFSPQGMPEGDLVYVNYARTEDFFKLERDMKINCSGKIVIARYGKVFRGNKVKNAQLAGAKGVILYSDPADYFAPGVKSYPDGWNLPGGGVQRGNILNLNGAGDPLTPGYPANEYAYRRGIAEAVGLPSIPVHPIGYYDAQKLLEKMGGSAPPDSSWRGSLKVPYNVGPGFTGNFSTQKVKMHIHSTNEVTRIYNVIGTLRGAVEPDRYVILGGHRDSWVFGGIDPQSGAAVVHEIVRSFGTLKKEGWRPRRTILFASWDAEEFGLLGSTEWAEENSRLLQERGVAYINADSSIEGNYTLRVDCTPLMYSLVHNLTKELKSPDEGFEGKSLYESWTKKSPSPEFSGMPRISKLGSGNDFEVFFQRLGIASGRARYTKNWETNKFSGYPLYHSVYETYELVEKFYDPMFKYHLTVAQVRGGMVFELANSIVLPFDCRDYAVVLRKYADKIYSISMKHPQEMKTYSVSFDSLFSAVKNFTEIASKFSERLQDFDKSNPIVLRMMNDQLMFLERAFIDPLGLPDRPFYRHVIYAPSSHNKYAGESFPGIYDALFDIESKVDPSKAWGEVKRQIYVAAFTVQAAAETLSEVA

| Compound | PSMA Blkg % (10 μM) | Ki |
| --- | --- | --- |
| CN1C(=O)N(C(CCC(=O)O)C(=O)O)C(=O)[C@@H]1CCCCNC(=O)c1ccc(N=[N+]=[N-])cc1 (stereo partly drawn) [P086, 2-((S)-4-(4-(4-Azidobenzamido)butyl)-3-methyl-2,5-dioxoimidazolidin-1-yl)-pentanedioic Acid] | 25% | – |
| Cc1nc(N[C@@H](CCC(=O)O)C(=O)O)sc1C(=O)O [P087, (S)-2-((5-Carboxy-4-methylthiazol-2-yl)amino)pentanedioic Acid] | 3% | – |
| O=NC1C(=O)N([C@@H](CCCCNC(=O)OCc2ccccc2)C(=O)O)C(=O)N([C@@H](CCC(=O)O)C(=O)O)C1=O (stereo partly drawn) [P088, (2S)-2-(3-((S)-5-(Benzyloxycarbonylamino)-1-carboxypentyl)-5-nitroso-2,4,6-trioxotetrahydropyrimidin-1(2H)-yl)pentanedioic Acid] | – | > 407 nM |
| O=C(O)CC[C@@H](C(=O)O)N1C(=O)C([N+](=O)[O-])C(=O)N([C@@H](CCCCNC(=O)OCc2ccc([N+](=O)[O-])cc2)C(=O)O)C1=O (stereo partly drawn) [P089, (2S)-2-(3-((S)-1-Carboxy-5-((((4-nitrobenzyl)oxy)carbonyl)amino)pentyl)-5-nitro-2,4,6-trioxotetrahydropyrimidin-1(2H)-yl)pentanedioic Acid] | – | > 407 nM |
| O=C(O)CC[C@H](NC(=O)CN(O)C(=O)CCCc1ccc(-n2cc(CCCF)nn2)cc1)C(=O)O [P090, (S)-2-(2-(4-(4-(4-(3-Fluoropropyl)-1H-1,2,3-triazol-1-yl)phenyl)-N-hydroxybutanamido)acetamido)pentanedioic Acid] | 85% | 313 nM |
| NC1C(=O)N([C@@H](CCCCNC(=O)OCc2ccccc2)C(=O)O)C(=O)N([C@@H](CCC(=O)O)C(=O)O)C1=O (stereo partly drawn) [P091, (2S)-2-(5-Amino-3-((S)-5-(benzyloxycarbonylamino)-1-carboxypentyl)-2,4,6-trioxotetrahydropyrimidin-1(2H)-yl)pentanedioic Acid] | 23% | – |
| O=C(O)CC[C@H](NC(=O)N(O)[C@@H](CCCCNC(=O)c1ccc(-n2cc(CCCF)nn2)cc1)C(=O)O)C(=O)O [P092, (S)-2-(3-((S)-1-Carboxy-5-(4-(4-(3-fluoropropyl)-1H-1,2,3-triazol-1-yl)benzamido)pentyl)-3-hydroxyureido)pentanedioic Acid] | 99% | 31 nM |
| O=C(O)CC[C@H](NC(=O)CN(O)C(=O)CCCCn1cc(CCCF)nn1)C(=O)O [P093, (S)-2-(2-(5-(4-(3-Fluoropropyl)-1H-1,2,3-triazol-1-yl)-N-hydroxypentanamido)-acetamido)pentanedioic Acid] | 16% | – |
| O=C(O)CC[C@@H](C(=O)O)N1C(=O)CC(=O)N([C@@H](CCCCNC(=O)CCCc2ccc(-n3cc(CCCF)nn3)cc2)C(=O)O)C1=O [P094, (S)-2-(3-((S)-1-Carboxy-5-(4-(4-(4-(3-fluoropropyl)-1H-1,2,3-triazol-1-yl)phenyl)butanamido)pentyl)-2,4,6-trioxotetrahydropyrimidin-(2H)-yl)pentanedioic Acid] | 7% | – |
| O=C(O)CC[C@@H](C(=O)O)N1C(=O)CC(=O)N(Cc2ccccc2)C1=O [P095, (S)-2-(3-Benzyl-2,4,6-trioxotetrahydropyrimidin-1(2H)-yl)pentanedioic Acid] | 4% | – |
| O=C(O)CC[C@@H](C(=O)O)N1C(=O)/C(=C(/O)Cn2cc(CCCF)nn2)C(=O)N(Cc2ccccc2)C1=O [P096, (S,E)-2-(3-Benzyl-5-(2-(4-(3-fluoropropyl)-1H-1,2,3-triazol-1-yl)-1-hydroxyethylidene)-2,4,6-trioxotetrahydropyrimidin-1(2H)-yl)pentanedioic Acid] | 3% | – |
| O=C(O)CCC(NC(=O)C(=O)N[C@@H](CCC(=O)O)C(=O)O)C(=O)O (stereo partly drawn) [P098, (2′S)-2,2′-(Oxalylbis(azanediyl))dipentanedioic Acid] | 23% | – |
| O=C(O)CCC(NS(=O)(=O)N[C@@H](CCC(=O)O)C(=O)O)C(=O)O (stereo partly drawn) [P099, (2S)-2,2′-(Sulfonylbis(azanediyl))dipentanedioic Acid] | 0% | – |
| O=C(O)CC[C@H](NC(=O)NNC(=O)CCCc1ccc(-n2cc(CCCF)nn2)cc1)C(=O)O [P100, (S)-2-(2-(4-(4-(4-(3-Fluoropropyl)-1H-1,2,3-triazol-1-yl)phenyl)butanoyl)-hydrazinecarboxamido)pentanedioic Acid] | 3% | – |
| O=C(O)CC[C@@H](C(=O)O)N1C(=O)/C(=C(\O)CCCc2ccc(-n3cc(CCCF)nn3)cc2)C(=O)N(Cc2ccccc2)C1=O [P101, (S,Z)-2-(3-Benzyl-5-(4-(4-(4-(3-fluoropropyl)-1H-1,2,3-triazol-1-yl)phenyl)-1-hydroxybutylidene)-2,4,6-trioxotetrahydropyrimidin-1(2H)-yl)pentanedioic Acid] | 0% | – |
| O=C(O)CC[C@@H](C(=O)O)N1C(=O)/C(=C(\O)CCCCn2cc(CCCF)nn2)C(=O)N(Cc2ccccc2)C1=O [P102, (S,Z)-2-(3-Benzyl-5-(5-(4-(3-fluoropropyl)-1H-1,2,3-triazol-1-yl)-1-hydroxypentylidene)-2,4,6-trioxotetrahydropyrimidin-1(2H)-yl)pentanedioic Acid] | 0% | – |

| Compound | PSMA Blkg % (10 μM) | Ki |
| --- | --- | --- |
| CN(C(=O)N[C@@H](CCC(=O)O)C(=O)O)[C@@H](CCCCNC(=O)CCCc1ccc(-n2cc(CCCF)nn2)cc1)C(=O)O [P103] | 91% | 235 nM |
| CCC1(CC)C(=O)N([C@@H](CCCCN(Cc2ccc([N+](=O)[O-])cc2)Cc2ccc([N+](=O)[O-])cc2)C(=O)O)C(=O)N([C@@H](CCC(=O)O)C(=O)O)C1=O [P104, (S)-2-(3-((S)-5-(Bis(4-nitrobenzyl)amino)-1-carboxypentyl)-5,5-diethyl-2,4,6-trioxotetrahydropyrimidin-1(2H)-yl)pentanedioic Acid] | 7% | – |
| CCC1(CC)C(=O)N([C@@H](CCCCN(Cc2ccc([N+](=O)[O-])cc2)C(=O)CCCCn2cc(CCCF)nn2)C(=O)O)C(=O)N([C@@H](CCC(=O)O)C(=O)O)C1=O [P105, (S)-2-(3-((S)-1-Carboxy-5-(5-(4-(3-fluoropropyl)-1H-1,2,3-triazol-1-yl)-N-(4-nitrobenzyl)pentanamido)pentyl)-5,5-diethyl-2,4,6-trioxotetrahydropyrimidin-1(2H)-yl)pentanedioic Acid] | 5% | – |
| O=C(O)CC[C@@H](C(=O)O)N1C(=O)N([C@@H](CCCCNC(=O)OCc2ccccc2)C(=O)O)C(=O)C2(CCC2)C1=O [P106, (2S)-2-(8-((S)-5-(Benzyloxycarbonylamino)-1-carboxypentyl)-5,7,9-trioxo-6,8-diazaspiro[3.5]nonan-6-yl)pentanedioic Acid] | 67% | – |
| CCC1(CC)C(=O)N([C@@H](CCCCNS(=O)(=O)c2ccc([N+](=O)[O-])cc2)C(=O)O)C(=O)N([C@@H](CCC(=O)O)C(=O)O)C1=O [P107, (S)-2-(3-((S)-1-Carboxy-5-(4-nitrophenylsulfonamido)pentyl)-5,5-diethyl-2,4,6-trioxotetrahydropyrimidin-1(2H)-yl)pentanedioic Acid] | 19% | – |
| CCC1(CC)C(=O)N([C@@H](CCCCNC(=O)NCc2ccccc2)C(=O)O)C(=O)N([C@@H](CCC(=O)O)C(=O)O)C1=O [P108, (S)-2-(3-((S)-5-(3-benzylureido)-1-carboxypentyl)-5,5-diethyl-2,4,6-trioxotetrahydropyrimidin-1(2H)-yl)pentanedioic Acid] | 11% | – |
| O=C(O)CCC(C(=O)O)n1cc(COc2ccc3ccc(=O)oc3c2)nn1 (stereo not shown) [P109, 2-(4-(((2-oxo-2H-chromen-7-yl)oxy)methyl)-1H-1,2,3-triazol-1-yl)pentanedioic Acid] | 24% | – |
| CCC1(CC)C(=O)N([C@@H](CCCCNCc2ccc([N+](=O)[O-])cc2)C(=O)O)C(=O)N([C@@H](CCC(=O)O)C(=O)O)C1=O [P110, (S)-2-(3-((S)-1-carboxy-5-(4-nitrobenzylamino)pentyl)-5,5-diethyl-2,4,6-trioxotetrahydropyrimidin-1(2H)-yl)pentanedioic Acid] | 8% | – |
| O=C(O)CC[C@H](NC(=O)CCN(O)C(=O)CCCc1ccc(-n2cc(CCCF)nn2)cc1)C(=O)O [P111, (S)-2-(3-(4-(4-(4-(3-Fluoropropyl)-1H-1,2,3-triazol-1-yl)phenyl)-N-hydroxybutanamido)propanamido)pentanedioic Acid] | 9% | – |
| CCC1(CC)C(=O)N([C@@H](CCCCNCc2ccc(OC)cc2)C(=O)O)C(=O)N([C@@H](CCC(=O)O)C(=O)O)C1=O [P112, (S)-2-(3-((S)-1-Carboxy-5-(4-methoxybenzylamino)pentyl)-5,5-diethyl-2,4,6-trioxotetrahydropyrimidin-1(2H)-yl)pentanedioic Acid] | 4% | – |
| CCC1(CC)C(=O)N([C@@H](CCCCNC(=O)c2ccc(F)nc2)C(=O)O)C(=O)N([C@@H](CCC(=O)O)C(=O)O)C1=O [P113, (S)-2-(3-((S)-1-Carboxy-5-(6-fluoronicotinamido)pentyl)-5,5-diethyl-2,4,6-trioxotetrahydropyrimidin-1(2H)-yl)pentanedioic Acid] | 11% | – |
| CCC1(CC)C(=O)N([C@@H](CCCCNC/C=C/c2ccc(-n3cc(CCCF)nn3)cc2)C(=O)O)C(=O)N([C@@H](CCC(=O)O)C(=O)O)C1=O [P114, (S)-2-(3-((S)-1-Carboxy-5-((E)-3-(4-(4-(3-fluoropropyl)-1H-1,2,3-triazol-1-yl)phenyl)allylamino)pentyl)-5,5-diethyl-2,4,6-trioxotetrahydropyrimidin-1(2H)-yl)pentanedioic Acid] | 8% | – |
| O=C(O)CC[C@H](NC(=O)C[C@H](NC(=O)CCCc1ccc(-n2cc(CCCF)nn2)cc1)C(=O)O)C(=O)O [P115] | 36% | – |
| O=C(O)CC[C@H](NC(=O)C[C@H](NC(=O)CCCNC(=O)OCc1ccccc1)C(=O)O)C(=O)O [P116, (10S,14S)-3,8,12-Trioxo-1-phenyl-2-oxa-4,9,13-triazahexadecane-10,14,16-tricarboxylic Acid] | 31% | – |
| O=C(O)CC[C@@H](C(=O)O)N1C(=O)NC(=O)/C(=C(/O)CCC(NC(=O)OCC2c3ccccc3-c3ccccc32)C(=O)O)C1=O (stereo partly shown) [P117] | 18% | – |
